According to publication PMC10691697, “A small molecule exerts selective antiviral activity by targeting the human cytomegalovirus nuclear egress complex” (PLOS Pathogens, 2023):
Numbering of substitutions follows the chain as printed. Where “and” joins values, the source holds several entries; their conditions need not be identical. Identical values can stand only once.

Experiments:
HCMV UL50-UL53 = biological target: T1, HCMV UL50-UL53 (Human cytomegalovirus, UniProt P16794); test: biochemical; assay type: binding; settings: for scoring as a hit in the HTRF screen: hit = at least 50 percent inhibition of HTRF signal, ibrutinib up to 50 μM
T1 construct: GST (N, cleaved yes); 13-residue glycine-serine linker […]; made in house; host or cells: E. coli BL21 (DE3) RIPL

HSV-1 P30-UL42 [1] = biological target: T2, HSV-1 P30-UL42 (Human herpesvirus 1, UniProt P10226); test: biochemical; assay type: binding
T2 construct: containing UL42 residues 1–340; GST (N); glycine-serine linker of the modified pGEX6p plasmid (presence inferred) (N); made in house; host or cells: E. coli (UL42: pLysS BL21)

HSV-1 P30-UL42 [2] = biological target: T3, HSV-1 P30-UL42 (Human herpesvirus 1, UniProt P10226); test: biochemical; assay type: binding; remark: listed apart in the source
T3 construct: containing UL42 residues 1–340; GST (N); glycine-serine linker of the modified pGEX6p plasmid (presence inferred) (N); made in house; host or cells: E. coli (UL42: pLysS BL21)
T3 sequence (P10226 whole entry, looked up): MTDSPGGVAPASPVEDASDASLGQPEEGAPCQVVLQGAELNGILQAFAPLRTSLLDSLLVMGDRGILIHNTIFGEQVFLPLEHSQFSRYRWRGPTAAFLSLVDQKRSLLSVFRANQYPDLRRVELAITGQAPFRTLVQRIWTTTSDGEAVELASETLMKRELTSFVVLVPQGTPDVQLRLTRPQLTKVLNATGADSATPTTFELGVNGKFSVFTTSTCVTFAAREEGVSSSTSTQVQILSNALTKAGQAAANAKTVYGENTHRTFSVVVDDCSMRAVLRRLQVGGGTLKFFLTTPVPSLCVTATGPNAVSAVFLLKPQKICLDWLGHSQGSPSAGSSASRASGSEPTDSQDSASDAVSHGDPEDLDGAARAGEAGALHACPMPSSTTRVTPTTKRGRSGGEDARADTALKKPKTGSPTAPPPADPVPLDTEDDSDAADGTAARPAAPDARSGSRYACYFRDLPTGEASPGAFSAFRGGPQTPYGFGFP

[3] = biological target: T4, His-tagged HCMV UL50 (residues 1-169) (human cytomegalovirus (HCMV), UniProt P16791 1-169); test: AlphaScreen or HTRF; settings: both partners purified
T4 construct: also called His-UL50; tagged UL50; source: E. coli BL21 (DE3) RIPL, purified (nickel Sepharose, size exclusion chromatography); not shown: His, N-terminal, kept
T4 sequence: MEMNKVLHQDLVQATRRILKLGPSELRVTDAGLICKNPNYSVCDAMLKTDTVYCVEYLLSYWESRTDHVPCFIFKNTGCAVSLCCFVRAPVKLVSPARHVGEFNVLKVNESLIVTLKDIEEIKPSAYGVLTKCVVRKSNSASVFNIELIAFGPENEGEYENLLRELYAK

[4] = biological target: T5, His-SUMO-tagged HSV-1 UL42 (residues 1-340) (herpes simplex virus 1 (HSV-1), UniProt P10226 1-340); test: AlphaScreen or HTRF; settings: both partners purified
T5 construct: also called His-SUMO-UL42; His-tagged HSV-1 UL42; source: E. coli pLysS BL21, purified as described for the HCMV NEC proteins
T5 sequence: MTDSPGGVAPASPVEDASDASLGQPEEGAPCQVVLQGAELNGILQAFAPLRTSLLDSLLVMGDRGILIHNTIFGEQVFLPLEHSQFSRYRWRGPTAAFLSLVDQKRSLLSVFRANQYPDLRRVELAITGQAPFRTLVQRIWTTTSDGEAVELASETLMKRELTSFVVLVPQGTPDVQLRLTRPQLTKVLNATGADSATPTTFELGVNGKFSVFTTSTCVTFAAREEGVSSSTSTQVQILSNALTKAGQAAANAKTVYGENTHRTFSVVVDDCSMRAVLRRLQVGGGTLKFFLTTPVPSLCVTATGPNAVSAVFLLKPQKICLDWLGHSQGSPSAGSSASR

[5] = biological target: T6, Myc-tagged HCMV UL53 (residues 50-292) (human cytomegalovirus (HCMV), UniProt P16794 50-292); test: AlphaScreen or HTRF; settings: both partners purified
T6 construct: source: E. coli BL21 (DE3) RIPL, purified (glutathione-agarose, on-column PreScission digestion, size exclusion chromatography); not shown: GST, N-terminal, cleaved; Myc, N-terminal, kept
T6 sequence: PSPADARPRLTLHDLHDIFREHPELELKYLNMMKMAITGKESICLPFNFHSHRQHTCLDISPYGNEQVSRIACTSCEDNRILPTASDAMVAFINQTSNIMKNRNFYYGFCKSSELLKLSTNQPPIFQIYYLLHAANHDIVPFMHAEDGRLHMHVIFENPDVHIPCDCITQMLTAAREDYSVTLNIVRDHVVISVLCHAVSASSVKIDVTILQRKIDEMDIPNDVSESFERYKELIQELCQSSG

[6] = LINCS2 well 2, 10 μM in the assay
[7] = LINCS2 well 4, 0.4 μM in the assay
[8] = Selleck well, 50 μM in the assay

## CCC(=O)Nc1cccc(Oc2ccnc3[nH]ccc23)c1 [aGK2]
HCMV UL50-UL53
  activity in the HTRF assay for NEC interactions: little, if any activity
HCMV UL50-UL53; WT UL50-UL53, 1.56 μM compound, replicates, read-out: normalized FRET signal relative to control without inhibitor
  remaining activity at 1.56 µM: 95%
HCMV UL50-UL53; WT UL50-UL53, 3.13 μM compound, replicates, read-out: normalized FRET signal relative to control without inhibitor
  remaining activity at 3.13 µM: 95%
HCMV UL50-UL53; WT UL50-UL53, 6.25 μM compound, replicates, read-out: normalized FRET signal relative to control without inhibitor
  remaining activity at 6.25 µM: 92%
HCMV UL50-UL53; WT UL50-UL53, 50.00 μM compound, replicates, read-out: normalized FRET signal relative to control without inhibitor
  remaining activity at 50 µM: 93%
HCMV UL50-UL53; WT UL50-UL53, […] compound, replicates, read-out: normalized FRET signal relative to control without inhibitor
  remaining activity at 25 µM: 94%
HSV-1 P30-UL42 [1]; HSV1 P30-UL42, 1.56 μM compound, replicates, read-out: normalized FRET signal relative to control without inhibitor
  remaining activity at 1.56 µM: 101%
HSV-1 P30-UL42 [1]; HSV1 P30-UL42, 3.13 μM compound, replicates, read-out: normalized FRET signal relative to control without inhibitor
  remaining activity at 3.13 µM: 102%
HSV-1 P30-UL42 [1]; HSV1 P30-UL42, 6.25 μM compound, replicates, read-out: normalized FRET signal relative to control without inhibitor
  remaining activity at 6.25 µM: 99%
HSV-1 P30-UL42 [1]; HSV1 P30-UL42, 50.00 μM compound, replicates, read-out: normalized FRET signal relative to control without inhibitor
  remaining activity at 50 µM: 97%
HSV-1 P30-UL42 [1]; HSV1 P30-UL42, […] compound, replicates, read-out: normalized FRET signal relative to control without inhibitor
  remaining activity at 25 µM: 99%
HSV-1 P30-UL42 [1]; all concentrations tested (up to 50 μM)
  inhibition in the HSV-1 P30-UL42 counterscreen assay: little, if any activity

## C=CC(=O)N1CCC[C@@H](n2nc(-c3ccc(Oc4ccccc4)cc3)c3c(N)ncnc32)C1 [ibrutinib, reference compound]
HCMV UL50-UL53; LINCS2 well 1, 50 μM in the assay
  HTRF Channel 2 (620 nm): 5736 and 5840
HCMV UL50-UL53; [6]
  HTRF Channel 1 (665 nm): 31679
  HTRF Channel 2 (620 nm): 5859 and 6111
HCMV UL50-UL53; LINCS2 well 3, 2 μM in the assay
  HTRF Channel 2 (620 nm): 6125 and 5780
HCMV UL50-UL53; [7]
  HTRF Channel 1 (665 nm): 31815
  HTRF Channel 2 (620 nm): 5791 and 5828
HCMV UL50-UL53; LINCS wells, 50, 10, 2 and 0.4 μM
  inhibition in HTRF screen: Essentially no inhibition
HCMV UL50-UL53; [8]
  HTRF Channel 1 (665 nm): 7468 and 7529
  HTRF Channel 2 (620 nm): 8631 and 9073
HCMV UL50-UL53
  scoring as a hit in the HTRF screen: not registering as a hit

## O=C([O-])c1ccccc1-c1c2cc(Br)c(=O)cc-2oc2[c]([Hg+])c([O-])c(Br)cc12.[Na+].[Na+].[OH-] [merbromin, reference compound]
HCMV UL50-UL53
  scoring as a hit in the HTRF screen: scored negative

## Untagged P30: untagged C-terminal 36 residues of HSV-1 UL30 (DDVAARLRAAGFGAVGAGATAEETRRMLHRAFDTLA) [reference compound]
HSV-1 P30-UL42 [2]; P30-UL42 + untagged protein, A665nm/A620nm * 10000, single replicates
  HTRF ratio: 26529 and 26670 and 27659
HSV-1 P30-UL42 [2]; P30-UL42 + untagged protein, triplicate
  HTRF ratio, Mean: 26953
HSV-1 P30-UL42 [2]; P30-UL42 with untagged protein
  S/B: 2.4

B1: Myc-tagged HCMV UL53 (residues 50-292) with glycine-serine linker (domain or fragment)
chain: GGGGSGGGGSGGGPSPADARPRLTLHDLHDIFREHPELELKYLNMMKMAITGKESICLPFNFHSHRQHTCLDISPYGNEQVSRIACTSCEDNRILPTASDAMVAFINQTSNIMKNRNFYYGFCKSSELLKLSTNQPPIFQIYYLLHAANHDIVPFMHAEDGRLHMHVIFENPDVHIPCDCITQMLTAAREDYSVTLNIVRDHVVISVLCHAVSASSVKIDVTILQRKIDEMDIPNDVSESFERYKELIQELCQSSG
notes: source: E. coli BL21 (DE3) RIPL, purified (glutathione-agarose, on-column PreScission digestion, size exclusion chromatography); not shown: GST, N-terminal, cleaved; Myc, N-terminal, kept
[3]
  HTRF ratio, fold over the background of either tagged subunit alone: ~3 fold

B2: Myc-tagged HSV-1 Pol C-terminal peptide P30 (UL30 residues 1200-1235) (peptide)
chain: GGGGSGGGGSGGGDDVAARLRTAGFGAVGAGATAEETRRMLHRAFDTLA
notes: source: E. coli, expressed and purified as described for Myc-UL53; not shown: Myc, N-terminal, kept
[4]
  binding result: binds

B3: His-tagged HCMV UL50 (residues 1-169) (domain or fragment)
chain: T4 sequence
notes: also called His-UL50; source: E. coli BL21 (DE3) RIPL, purified (nickel Sepharose, size exclusion chromatography); not shown: His, N-terminal, kept
[5]
  Kd: 220 nM and 380 nM

B4: His-tagged HCMV UL50 (residues 1-169) C54S (domain or fragment)
chain: T4 sequence with C54S
notes: source: E. coli BL21 (DE3) RIPL, purified (same methods as His-UL50); not shown: His, N-terminal, kept
[5]
  Kd: 140 nM and 340 nM

B5: His-tagged HCMV UL50 (residues 1-169) C35N (domain or fragment)
chain: T4 sequence with C35N
notes: as for B4
[5]
  Kd: 110 nM and 190 nM

B6: His-tagged HCMV UL50 (residues 1-169) C79S (domain or fragment)
chain: T4 sequence with C79S
notes: as for B4
[5]
  Kd: 230 nM and 450 nM
